According to patent publication US4325960A, “6-Amidinopenicillanic acid derivatives including the radical of a β-lactamase inhibitor” (Leo Pharmaceutical Products Ltd. A/S (Lovens Kemiske Fabrik, priority 1979, dated 1982):
Several values for one entry are separate records, joined by “and”; a condition that tells them apart may be missing. Identical values can stand only once. Counter-ions that a name gives are not always drawn. Blank lines part the entries; values can stand above or below the molecule they belong to.

Columns and labels:
[1] = in vivo; cited from earlier work
β-lactamases = conditions: cited from earlier work
[2] = human, in vivo, po
Protocol: Serum concentrations and urinary excretion of mecillinam in fasting
following oral administration of
B. 128 mg of VD-1825^x hydrochloride (corresponding to 100 mg of
pivmecillinam hydrochloride) in aqueous solution

[3] = Urinary excretion in 0 to 6 hours of penicillanic acid 1,1-dioxide in fasting volunteers following oral administration; format: in vivo, human
Protocol: Urinary excretion in 0 to 6 hours of penicillanic
acid 1,1-dioxide in fasting volunteers following
A. 60 mg of potassium penicillanate 1,1-dioxide
(corresponding to 52 mg of penicillanic acid
1,1-dioxide) in aqueous solution
B. 128 mg of VD-1825 hydrochloride (corresponding
to 49.0 mg of penicillanic acid 1,1-dioxide) in […]

SMILES: CC(C)(C)C(=O)OCOC(=O)[C@@H]1N2C(=O)C[C@H]2S(=O)(=O)C1(C)C
Absorption from the gastro-intestinal tract on oral administration [1]: absorbed much more slowly

SMILES: CC1(C)[C@H](C(=O)O)N2C(=O)[C@H](Cl)[C@H]2S1(=O)=O [6α-chloropenicillanic acid 1,1-dioxide]
β-lactamase inhibition (β-lactamases): powerful inhibitors of a wide range of β-lactamases

Absorption concluded from urinary recovery of penicillanic acid 1,1-dioxide ([3]; human, in vivo, po): efficient absorption
SMILES: CC1(C)S[C@@H]2[C@H](N=CN3CCCCCC3)C(=O)N2[C@H]1C(=O)OCOC(=O)[C@@H]1N2C(=O)C[C@H]2S(=O)(=O)C1(C)C [VD-1825, 1,1-Dioxopenicillanoyloxymethyl 6-[(hexahydro-1H-azepin-1-yl)-methyleneamino]penicillanate hydrochloride]
Urinary recovery of mecillinam compared with pivmecillinam [2]: comparable to that following administration of pivmecillinam

SMILES: O=C(O)[C@H]1/C(=C/CO)O[C@@H]2CC(=O)N21 [clavulanic acid]
β-lactamase inhibition (β-lactamases): β-lactamase inhibitors

SMILES: CC1(C)S[C@@H]2[C@H](N=CN3CCCCCC3)C(=O)N2[C@H]1C(=O)O [mecillinam, 6-[(hexahydro-1H-azepin-1-yl)-methyleneamino]penicillanic acid]
Absorption from the gastro-intestinal tract on oral administration [1]: incompletely absorbed, when given orally

SMILES: COc1cccc(OC)c1C(=O)N[C@@H]1C(=O)N2[C@@H](C(=O)O)C(C)(C)S(=O)(=O)[C@H]12 [methicillin sulphone, 1,1-dioxo-6β-(2,6-dimethoxybenzamido)penicillanic acid]
β-lactamase inhibition (β-lactamases): powerful inhibitors of a wide range of β-lactamases

SMILES: CC1(C)[C@H](C(=O)O)N2C(=O)C[C@H]2S1(=O)=O [penicillanic acid 1,1-dioxide]
Absorption from the gastro-intestinal tract, cf. Table II ([3]; oral): absorbed poorly or irregularly from the gastro-intestinal tract | β-lactamase inhibition (β-lactamases): powerful inhibitors of a wide range of β-lactamases

SMILES: CC1(C)[C@H](C(=O)[O-])N2C(=O)C[C@H]2S1(=O)=O.[K+] [potassium penicillanate 1,1-dioxide]
Urinary excretion of penicillanic acid 1,1-dioxide ([3]; 0 to 6 hours, individual subject, 60 mg potassium penicillanate 1,1-dioxide oral, aqueous solution, fasting, 360 min): 2.4 % of dose and 3.2 % of dose and 7.7 % of dose and 5.2 % of dose and 2.9 % of dose | Urinary excretion of penicillanic acid 1,1-dioxide, mean ([3]; 0 to 6 hours, mean, 60 mg potassium penicillanate 1,1-dioxide oral, aqueous solution, fasting): 4.3 % of dose | dose excreted at 6 h ([3]; human, in vivo, po, 60 mg, 0 to 6 hours, mean, 60 mg potassium penicillanate 1,1-dioxide oral, aqueous solution, fasting): 4.3%

SMILES: CC1(C)[C@H](C(=O)O)N2C(=O)[C@@H](NC(=O)c3nc4ccccc4nc3C(=O)O)[C@H]2S1(=O)=O [quinacillin sulphone]
β-lactamase inhibition (β-lactamases): powerful inhibitors of a wide range of β-lactamases
